Reference: paper PMC6013238, “Development of novel NEMO-binding domain mimetics for inhibiting IKK/NF-κB activation” (PLoS Biology, 2018)
Values joined by “and” are separate entries in the source; they are usually repeats but may differ in a detail not shown here. Identical values can stand only once.

What was measured:
IL-6 production = test: Mouse IL-6 ELISA of supernatant of LPS-stimulated Raw 264.7 cells; assay type: cell-based; settings: LPS 1 μg/ml 24 h; for mIL-6 in supernatant (ELISA): Fig 4D; for Effect on LPS-induced IL-6 production (ELISA): 25 and 50 μM
Experimental: Fig 4 Modified lead NBD mimetics inhibit TNF-α- and LPS-induced NF-κB activation by disrupting the association between NEMO and IKKβ. (A) Structures of top NBD mimetics. (B) Measurement of NF-κB activation in response to TNF-α by using Dual-luciferase reporter assays. HEK293 cells cotransfected with NF-κB luciferase reporter and SV40-Renilla plasmids were pretreated with DMSO or listed small molecules at 0, 25, 50, 100, and 150 μM for 30 min, followed by the induction of TNF-α for 3 h. Data shown are representative of 2–3 independent experiments. […] Raw 264.7 cells were pretreated with indicated drugs for 30 min and then stimulated with 1 μg/ml of LPS for 2 h. Cells were then harvested for RNA extraction and qRT-PCR analysis. Drug concentrations used are as follows: IKKi VII (2 μM), 8K-NBD peptide (200 μM), SR12343 (50 μM), SR12460 (50 μM), SR12454 (50 μM), and SR11481 (50 μM). Data are representative of 2 independent experiments. […] Raw 264.7 cells pretreated with DMSO or drugs at indicated concentrations were exposed to 1 μg/ml of LPS for 24 h, and supernatant was collected for ELISA analysis of mouse IL-6. *P < 0.05; **P < 0.01. Underlying data can be found in S1 Data. HEK293, human embryonic kidney 293 cells; IKK, IκB kinase; IL-6, interleukin 6; LPS, lipopolysaccharide; NBD, NEMO-binding domain; n.d., nondetectable; NEMO, NF-κB essential modulator; NF-κB, nuclear factor κB; qRT-PCR, […] real-time polymerase chain reaction; TNF-α; tumor necrosis factor α. TEXT PRINTED IN THE PICTURE: (D) ikki VII: mIL-6 (ng/ml): n.d. | (D) SR12460: mIL-6 (ng/ml): n.d. (50μM) | (D) SR12454: mIL-6 (ng/ml): n.d. (50μM) DOUBTS OF THE COPYIST ABOUT THIS PICTURE: Panel D: the only printed results are the three "n.d." labels. They stand in place of bars and are assigned to ikki VII, SR12460 50μM and SR12454 50μM by their position on the axis. All other results are shown only as bars, with no printed numbers.
To confirm the qRT-PCR results, the levels of IL-6 production in Raw 264.7 cells activated by LPS were analyzed by ELISA.
Raw 264.7 cells were grown in 96-well plates and pretreated with vehicle, IKKi VII (2 μM), and small molecules (at indicated concentration) for 1 h, followed by the stimulation with 1 μg/ml of LPS. Supernatant was collected 24 h later for ELISA analysis. IL-6 concentration was measured using a mouse IL-6 ELISA kit (BD) according to the manufacturer’s instructions.

mdx mice = test: Chronic treatment of mdx mice, forelimb grip strength test; assay type: in vivo, mouse; settings: Fig 7G, single mice
From the text: Fig 7 NBD mimetics improve muscular pathology and grip strength in mdx mice. (A) Shown is the treatment regimen with NBD mimetics in mdx mice. (B) Hematoxylin–eosin staining of TA muscle from 7-wk-old, treated or untreated mdx mice. Images were taken at magnification of 20×. Representative images were shown for each treatment group. […] (E) TA muscle from 7-wk-old, treated or untreated mdx mice was stained with laminin by IHC to outline myofibers. Overall images of TA muscle were shown on the left side, and the inset panel images were shown on the right side. (F) Quantitation of minimum Feret diameter in centrally and noncentrally nucleated myofibers. (G) Forelimb force determined by grip strength test. Five-wk-old (2 wk post treatment) and 7-wk-old (4 wk post treatment) mdx mice, treated or untreated, were tested for forelimb grip strength. Five sequential tests were performed, and the force was normalized to body weight. Data were shown as mean +/− SEM. Dosages used are as follows: SR12343 (30 mg/kg), SR12460 (30 mg/kg), and 8K-NBD peptide (10 mg/kg). n = 6–7 each group. *P < 0.05, **P < 0.01. Underlying data can be found in S1 Data. eMyHC, embryonic myosin heavy chain; IHC, immunohistochemistry; NBD, NEMO-binding domain; NEMO, NF-κB essential modulator; Pax7, paired box protein 7; qRT-PCR, quantitative real-time polymerase chain reaction; TA, tibialis anterior. To determine whether the NBD mimetics improved muscle strength, grip strength was measured 2 wk and 4 wk post treatment to assess forelimb strength (Fig 7G). […] Seven-wk-old treated or untreated mdx mice were measured for forelimb grip strength by using a digital grip strength meter paired with a metal grid (Bioseb, Vitrolles, France). Mice were allowed to grip the metal grid tightly, and readings were obtained by gently pulling the tail backward until release. Five sequential measurements were performed, and the average force was calculated.

SMILES	mIL-6 in supernatant (ELISA) (IL-6 production; 25 μM)	Effect on LPS-induced IL-6 production (ELISA) (IL-6 production)	Forelimb grip strength, force normalized to body weight (mdx mice; 2 week post treatment)	Forelimb grip strength, force normalized to body weight (mdx mice; 2 week post treatment, listed as SR 12343)	Forelimb grip strength, force normalized to body weight (mdx mice; 4 week post treatment)	mIL-6 in supernatant (ELISA) (IL-6 production; 50 μM) [ng/mL]
O=C(CNc1ccc(Cl)cn1)NCCc1cccc(Br)c1 [SR12343]	2.6915 ng/mL and 2.4446 ng/mL and 1.843 ng/mL	inhibited IL-6 production, but was not as effective as SR12460 and SR12454	significantly improved forelimb strength	3.61 and 3.7248 and 3.659 and 4.054	4.866 and 4.5019 and 4.825 and 4.175 and 4.644 and 3.675 and 4.427	–
O=C(CNCCc1cc(F)cc(F)c1)Nc1ccc(Cl)cn1 [SR12460]	1.4838 ng/mL and 1.2369 ng/mL and 1.4569 ng/mL	inhibit IL-6 secretion significantly in a dose-dependent manner	5.738 and 3.226 and 3.35	–	5.455 and 4.515 and 5.487 and 3.928 and 4.07 and 4.448	0
